Measurements from patent US8937096B2, “Use of benzo-fused heterocyle sulfamide derivatives for the treatment of mania and bipolar disorder” (priority 2005, dated 2015).
Read-outs that look alike come from different tables or passages of the source.

Tests used:
CH3/HeJ mice = assay: Tail Suspension Test (Acute); assay type: in vivo, mouse; settings: for ED50: Mus musculus, po, 7 min; for Immobility Emax % of C / Mobility Emax % of C: 7-min session
Method: In the tail suspension test (TST) for evaluating compounds for anti-depressant activity, mice are suspended by their tails to a metal or plastic rod using clip or scotch tape. The test is usually quite short, 5-7 min, and the amount of time the mice spend immobile is recorded either manually or with an automated device. Agents which have antidepressant activity, decrease the duration of immobility of mice in this test.
The basic apparatus for the tail suspension assay consisted of a yellow plastic chamber (91×45×10 cm) divided for four arenas 25, 20, 20 and 25 cm wide separated by yellow plastic walls 0.75 cm thick. Mice were suspended by their tails using a rubber clip (7 cm long) attached to the plastic rod that was placed on the top of a testing chamber half way through its deep dimension. Each experimental session was videotaped and analyzed for four animals in the real time by computer software (“Depression Scan” Clever Sys Inc.). The computer justification of immobility was calibrated with the use of animals dosed with lorazepam while justification of movement was calibrated with the high dose of desipramine treated animals. […] The settings were adjusted separately for dark (CH3/HeJ and C57BI/6J strains) and white mice (Balb/cJ and A/J strains). A yellow background was used for dark mice and a blue background was used to record movements of white mice.
The ability of a test compound to decrease the duration of immobility, or increase mobility was measured using the TST procedure described above.
Data were analyzed using GraphPad Prism software (GraphPad Software, Inc. San Diego, Calif.). For the comparison of the effect of different doses for various drugs on immobility in the TST one-way analyses of variance (ANOVA) were used followed by Dunnett's multiple comparison test. […] The ED50 and Emax values were compared using two-way ANOVA and Bonferroni post-hoc test.
Positive controls included duloxetine (DLX), venlafaxine (VLX) and desipramine (DMI) which were dissolved in 0.5% methylcellulose and lorazepam (LOR) which was suspended in 0.5% of methylcellulose in water by sonication. All drugs and vehicles were administered orally (p.o.) by gavage in a volume of 10 mL/kg.
The mice were ordered 5 weeks old and at the beginning of experiment their weight was 20±5 g. Animals were housed in groups of four in plastic cages at an ambient temperature of 21° C. to 23° C. with an automated 12/12 hours light/dark cycle and access to water and a commercial rodent food ad libitum.
Each experiment consisted of seven treatment groups with four animals per group. A total of 28 animals per experiment were used. Every two consecutive experiments (1 & 2, 3 & 4, 5 & 6 and 7 & 8) were exact replicas of each other. […] One treatment group of four animals in each experiment was a vehicle treated group. In addition to the vehicle treated group, the effects of DMI at 6 mg/kg, 12 mg/kg, 30 mg/kg, 60 mg/kg and 120 mg/kg and LOR at 5 mg/kg were tested in experiments 1 and 2. […] In experiments 5 and 6 the effects of DLX at 6 mg/kg, 12 mg/kg, 30 mg/kg, 60 mg/kg, 120 mg/kg and LOR at 5 mg/kg were tested.

Wistar rats = assay: Chronic Mild Stress Model (Chronic); assay type: in vivo, rat
Source text: In the chronic mild stress (CMS) model rats subjected to a variety of mild stressors for a prolonged period of time show, among other behavioral, biochemical and physiological impairments, a substantial decrease in their responsiveness to rewarding stimuli. This deficit is usually monitored by a decrease in the consumption of the 1% sucrose solution, but can also be seen in other tests, such as place preference conditioning or intracranial self-stimulation. Since the subsensitivity to reward appears to reflect anhedonia (inability to experience pleasure), which is a core symptom of major depressive disorders, the CMS procedure may serve as a suitable research tool in studies into the mechanisms of antidepressant action.
Male Wistar rats were brought into the laboratory two months before the start of the experiment. Except as described below, the animals were singly housed with food and water freely available, and were maintained on a 12-h light/dark and in a constant temperature (22±2° C.) and humidity (50±5%) conditions.
The animals were first trained to consume a 1% sucrose solution; training consisted of eight 1 h baseline tests in which sucrose was presented, in the home cage, following 14 h food and water deprivation; the sucrose intake was measured by weighing pre-weighed bottles containing the sucrose solution, at the end of the test. Subsequently, sucrose consumption was monitored, under similar conditions, at weekly intervals throughout the whole experiment.
On the basis of their sucrose intakes in the final baseline test, the animals were divided into two matched groups. One group of animals was subjected to the chronic mild stress procedure for a period of 7 consecutive weeks. […]
All results obtained in this study were analyzed by multiple analyses of variance with three between-subjects factors (stress/control, drug treatments and successive sucrose tests). […]

Compound	ED50 (CH3/HeJ mice; read-out: Immobility ED50) [mg/kg]	ED50 (CH3/HeJ mice; read-out: Mobility ED50) [mg/kg]	Immobility Emax % of C (CH3/HeJ mice; p.o., CH3/HeJ mice)	Mobility Emax % of C (CH3/HeJ mice; p.o., CH3/HeJ mice)	treatment time after which increases in sucrose intake in stressed animals reached statistical significance vs Week 0 (Wistar rats; stressed animals, i.p. once daily)	doses at which effects were statistically significant vs vehicle (CH3/HeJ mice; p.o., CH3/HeJ mice)	Immobility Emax % of C (CH3/HeJ mice; p.o., CH3/HeJ mice, listed as Cmpd #8)	immobility time and mobility time (CH3/HeJ mice; p.o., CH3/HeJ mice, 7-min testing session)	activity in the CMS model of depression (Wistar rats; 12, 30 or 60 mg/kg i.p.)
COc1ccc(C(CN(C)C)C2(O)CCCCC2)cc1 (centres unmarked) [Venlafaxine, venlafaxine, reference compound]	25	21.1	63.7 % of C	412.6 % of C	four weeks				
NS(=O)(=O)NC[C@H]1COc2cc(Cl)ccc2O1 [Compound #8, (2S)-(−)-N-(6-Chloro-2,3-dihydro-benzo[1,4]dioxin-2-ylmethyl)-sulfamide]			22.2±6.1 % of C	95.6 % of C		12 mg/kg, 60 mg/kg, and 120 mg/kg	22.2 % of C	decreased immobility time and increased mobility time	inactive in the CMS model of depression
